Test results published in article PMC3501149 (ACS Chemical Biology, 2012).

Target: firefly luciferase (Fluc) (Photinus pyralis, UniProt P08659)
Experiment: luminescence emission spectrum
Type: biochemical

firefly luciferase (Fluc), sequence (P08659 whole entry): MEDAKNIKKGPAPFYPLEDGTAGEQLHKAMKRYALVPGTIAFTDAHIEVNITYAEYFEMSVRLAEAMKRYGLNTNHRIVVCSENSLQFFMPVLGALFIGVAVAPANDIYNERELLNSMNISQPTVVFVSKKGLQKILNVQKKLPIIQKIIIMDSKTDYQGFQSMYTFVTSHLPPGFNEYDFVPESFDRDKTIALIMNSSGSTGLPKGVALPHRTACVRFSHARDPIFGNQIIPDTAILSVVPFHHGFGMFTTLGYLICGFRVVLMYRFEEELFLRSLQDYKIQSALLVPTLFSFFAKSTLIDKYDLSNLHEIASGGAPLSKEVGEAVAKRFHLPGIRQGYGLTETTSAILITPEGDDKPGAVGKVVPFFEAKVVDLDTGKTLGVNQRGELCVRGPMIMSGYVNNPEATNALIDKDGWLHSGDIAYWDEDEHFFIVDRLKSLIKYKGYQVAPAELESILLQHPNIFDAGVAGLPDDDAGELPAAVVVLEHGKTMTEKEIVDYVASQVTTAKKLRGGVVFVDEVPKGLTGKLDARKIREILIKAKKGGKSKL

In the case of `O=C(O)[C@H]1CSC(c2nc3ccc(O)cc3s2)=N1` [D-luciferin], the luminescence emission spectrum is reported as “Fluc (D-luciferin)”.
